Among the data in US20250361230A1, “LATS Inhibitors and Uses Thereof” (The USA, as Represented by the Secretary, Dept. of Heath …, priority 2022, published 2025) are IC50 values, retold here.

One test addresses T1, LATS2 (Homo sapiens, UniProt Q9NRM7).
T1 sequence (Q9NRM7 1-1088): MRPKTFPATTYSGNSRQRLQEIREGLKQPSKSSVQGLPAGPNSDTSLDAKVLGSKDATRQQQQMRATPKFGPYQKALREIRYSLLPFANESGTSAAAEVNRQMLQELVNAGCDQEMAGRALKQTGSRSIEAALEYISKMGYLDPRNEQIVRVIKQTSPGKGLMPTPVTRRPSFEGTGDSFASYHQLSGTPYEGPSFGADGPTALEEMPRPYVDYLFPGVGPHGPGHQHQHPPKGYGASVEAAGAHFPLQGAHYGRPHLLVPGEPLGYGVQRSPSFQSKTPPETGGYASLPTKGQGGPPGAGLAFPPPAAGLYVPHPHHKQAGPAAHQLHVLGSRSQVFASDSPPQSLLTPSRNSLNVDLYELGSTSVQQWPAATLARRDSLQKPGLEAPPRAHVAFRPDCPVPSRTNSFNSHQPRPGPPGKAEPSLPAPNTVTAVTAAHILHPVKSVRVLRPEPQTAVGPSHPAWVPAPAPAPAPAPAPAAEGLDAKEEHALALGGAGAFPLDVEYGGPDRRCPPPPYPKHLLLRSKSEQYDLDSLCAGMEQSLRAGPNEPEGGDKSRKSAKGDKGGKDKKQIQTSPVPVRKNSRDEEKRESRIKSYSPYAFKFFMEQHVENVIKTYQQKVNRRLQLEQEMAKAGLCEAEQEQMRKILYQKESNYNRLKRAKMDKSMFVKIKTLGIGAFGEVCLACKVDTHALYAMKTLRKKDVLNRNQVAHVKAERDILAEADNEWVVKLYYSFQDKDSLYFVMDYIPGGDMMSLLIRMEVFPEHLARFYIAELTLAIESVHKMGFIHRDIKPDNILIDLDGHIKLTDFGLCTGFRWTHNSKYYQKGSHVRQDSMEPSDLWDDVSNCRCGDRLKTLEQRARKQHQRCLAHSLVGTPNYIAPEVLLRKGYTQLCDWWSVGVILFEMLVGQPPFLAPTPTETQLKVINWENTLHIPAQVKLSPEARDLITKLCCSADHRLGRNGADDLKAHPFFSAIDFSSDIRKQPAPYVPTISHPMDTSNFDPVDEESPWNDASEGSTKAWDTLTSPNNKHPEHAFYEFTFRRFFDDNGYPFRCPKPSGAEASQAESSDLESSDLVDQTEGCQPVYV
Nature of the test: RBC HotSpot kinase assay (33P-ATP, P81 filter-binding), LATS2. The format is biochemical. Particulars: Table 28, biochemical kinase assay; read-out: LATS2 IC50. The procedure, abridged: (§1)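 Substrate in fresh buffer receives cofactors, then kinase, then compound in DMSO for a 20 min room-temperature preincubation. Reactions start with 33P-ATP and run 2 h; phosphorylation is read by P81 filter binding, and IC50 comes from a 10-point curve.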

The target of a further test is T2, LATS1 (Homo sapiens, UniProt O95835).
T2 sequence (O95835 1-1130): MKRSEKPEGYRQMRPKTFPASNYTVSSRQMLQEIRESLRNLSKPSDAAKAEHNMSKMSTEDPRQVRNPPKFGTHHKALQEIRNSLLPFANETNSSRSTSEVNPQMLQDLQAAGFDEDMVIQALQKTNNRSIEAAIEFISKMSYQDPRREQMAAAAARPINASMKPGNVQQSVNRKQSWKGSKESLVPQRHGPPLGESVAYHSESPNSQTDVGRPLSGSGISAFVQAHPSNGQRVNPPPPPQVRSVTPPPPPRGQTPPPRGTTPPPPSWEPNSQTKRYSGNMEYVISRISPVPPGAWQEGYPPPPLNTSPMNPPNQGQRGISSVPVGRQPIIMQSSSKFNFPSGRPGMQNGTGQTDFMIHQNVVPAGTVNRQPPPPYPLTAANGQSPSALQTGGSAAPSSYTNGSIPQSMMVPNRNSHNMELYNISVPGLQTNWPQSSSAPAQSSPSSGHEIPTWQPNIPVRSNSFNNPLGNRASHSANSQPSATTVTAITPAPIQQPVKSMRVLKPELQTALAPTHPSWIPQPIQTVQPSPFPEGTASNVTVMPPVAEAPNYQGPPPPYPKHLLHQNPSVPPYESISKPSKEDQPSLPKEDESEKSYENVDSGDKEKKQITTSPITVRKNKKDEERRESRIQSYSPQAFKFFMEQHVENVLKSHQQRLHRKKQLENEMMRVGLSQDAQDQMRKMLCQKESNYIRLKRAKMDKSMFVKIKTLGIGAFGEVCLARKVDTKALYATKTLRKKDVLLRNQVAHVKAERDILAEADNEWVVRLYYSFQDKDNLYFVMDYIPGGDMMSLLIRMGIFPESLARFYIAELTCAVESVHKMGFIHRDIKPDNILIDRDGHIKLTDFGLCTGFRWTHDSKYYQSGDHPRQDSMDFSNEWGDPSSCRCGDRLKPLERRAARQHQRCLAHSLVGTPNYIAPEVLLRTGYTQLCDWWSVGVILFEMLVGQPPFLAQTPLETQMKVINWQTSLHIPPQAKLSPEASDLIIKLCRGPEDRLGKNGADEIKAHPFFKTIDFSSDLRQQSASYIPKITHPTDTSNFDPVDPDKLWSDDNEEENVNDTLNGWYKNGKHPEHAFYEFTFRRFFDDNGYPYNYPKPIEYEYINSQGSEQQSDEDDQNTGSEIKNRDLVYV
Description: RBC HotSpot kinase assay (33P-ATP, P81 filter-binding), LATS1. Type of test: biochemical. Conditions: Table 28, biochemical kinase assay; read-out: LATS1 IC50. The procedure, abridged: as §1

Broadly, the IC50 is the midpoint of a concentration-inhibition curve. For the compound `C[C@@H]1CN(C2CCS(=O)(=O)CC2)C[C@H](C)C1(O)c1c(F)cc(-c2ccnc3[nH]cc(F)c23)cc1F` (stereo partly drawn) [Compound 31, 4-((3S,5R)-4-(2,6-difluoro-4-(3-fluoro-1H-pyrrolo[2,3-b]pyridin-4-yl)phenyl)-4-hydroxy-3,5-dimethylpiperidin-1-yl)tetrahydro-2H-thiopyran 1,1-dioxide], the IC50 on LATS2 is 6.3 nM; on LATS1, 6.7 nM.
The corresponding values for `C[C@@H]1CN(C)C[C@H](C)[C@@]1(O)c1ccc(-c2ccnc3[nH]cc(F)c23)cc1` [Compound 39, (3R,4s,5S)-4-(4-(3-fluoro-1H-pyrrolo[2,3-b]pyridin-4-yl)phenyl)-1,3,5-trimethylpiperidin-4-ol] are 24.7 nM and 19.5 nM.
The corresponding values for `C[C@@H]1CN(C)C[C@H](C)[C@@]1(O)c1ccc(-c2ccnc3[nH]cc(F)c23)nc1` [Compound 41, (3R,4s,5S)-4-(6-(3-fluoro-1H-pyrrolo[2,3-b]pyridin-4-yl)pyridin-3-yl)-1,3,5-trimethylpiperidin-4-ol] are 268 nM and 61 nM.
In the case of `C[C@@H]1CN(C2COC2)C[C@H](C)[C@@]1(O)c1c(F)cc(-c2ccnc3[nH]cc(F)c23)cc1F` [Compound 45, (3S,4s,5R)-4-(2,6-difluoro-4-(3-fluoro-1H-pyrrolo[2,3-b]pyridin-4-yl)phenyl)-3, S-dimethyl-1-(oxetan-3-yl)piperidin-4-ol], the IC50 on LATS2 amounted to 9.8 nM; on LATS1, 3.4 nM.
As for `C[C@@H]1CN(C2CCC2)C[C@H](C)[C@@]1(O)c1c(F)cc(-c2ccnc3[nH]cc(F)c23)cc1F` [Compound 46, (3R,4s,5S)-1-cyclobutyl-4-(2,6-difluoro-4-(3-fluoro-1H-pyrrolo[2,3-b]pyridin-4-yl)phenyl)-3,5-dimethylpiperidin-4-ol], the IC50 turned out to be 4 nM at LATS2 and 1.7 nM at LATS1.
The corresponding values for `Cc1cc(-c2ccnc3[nH]cc(F)c23)ncc1[C@@]1(O)[C@H](C)CN(C2CCC2)C[C@@H]1C` [Compound 48, (3R,4s,5S)-1-cyclobutyl-4-(6-(3-fluoro-1H-pyrrolo[2,3-b]pyridin-4-yl)-4-methylpyridin-3-yl)-3,5-dimethylpiperidin-4-ol] are 16.1 nM and 2.9 nM.
The corresponding values for `Cc1cc(-c2ccnc3[nH]cc(F)c23)ncc1[C@@]1(O)[C@H](C)CN(C2CCS(=O)(=O)CC2)C[C@@H]1C` [Compound 51, 4-((3R,4s,5S)-4-(6-(3-fluoro-1H-pyrrolo[2,3-b]pyridin-4-yl)-4-methylpyridin-3-yl)-4-hydroxy-3,5-dimethylpiperidin-1-yl)tetrahydro-2H-thiopyran 1,1-dioxide] are 4250 nM and 2080 nM.
As to `Cc1cc(-c2ccnc3[nH]cc(F)c23)ccc1[C@@]1(O)[C@H](C)CN(C2CCC2)C[C@@H]1C` [Compound 54, (3R,4s,5S)-1-cyclobutyl-4-(4-(3-fluoro-1H-pyrrolo[2,3-b]pyridin-4-yl)-2-methylphenyl)-3,5-dimethylpiperidin-4-ol], the 50% inhibitory concentration (IC50) at LATS2 was 2.3 nM; at LATS1, 2.5 nM.
The corresponding values for `Cc1cc(-c2ccnc3[nH]cc(F)c23)ccc1[C@@]1(O)[C@H](C)CN(C2CCS(=O)(=O)CC2)C[C@@H]1C` [Compound 55, 4-((3R,4s, 5S)-4-(4-(3-fluoro-1H-pyrrolo[2,3-b]pyridin-4-yl)-2-methylphenyl)-4-hydroxy-3,5S-dimethylpiperidin-1-yl)tetrahydro-2H-thiopyran 1,1-dioxide] are 12.1 nM and 9 nM.
The corresponding values for `Cc1cc(-c2ccnc3[nH]cc(F)c23)cc(F)c1[C@@]1(O)[C@H](C)CN(C2CCS(=O)(=O)CC2)C[C@@H]1C` [Compound 57, 4-((3R,4s,5S)-4-(2-fluoro-4-(3-fluoro-1H-pyrrolo[2,3-b]pyridin-4-yl)-6-methylphenyl)-4-hydroxy-3,5-dimethylpiperidin-1-yl)tetrahydro-2H-thiopyran 1,1-dioxide] are 5.3 nM and 4.4 nM.
On the same counts, the results for `C[C@@H]1CN(C(=O)CN)C[C@H](C)[C@@]1(O)c1c(F)cc(-c2ccnc3[nH]cc(F)c23)cc1F` [Compound 58] are 11.1 nM and 22 nM.
Turning to `Cc1cc(-c2ccnc3[nH]cc(F)c23)ccc1[C@@]1(O)[C@H](C)CN(C(=O)CN)C[C@@H]1C` [Compound 60, 2-amino-1-((3R,4s,5S)-4-(4-(3-fluoro-1H-pyrrolo[2,3-b]pyridin-4-yl)-2-methylphenyl)-4-hydroxy-3,5-dimethylpiperidin-1-yl)ethan-1-one], the IC50 on LATS2 came out at 6.7 nM; at LATS1, 8.3 nM.
As for `Cc1cc(-c2ccnc3[nH]cc(F)c23)cc(F)c1[C@@]1(O)[C@H](C)CN(C(=O)CN)C[C@@H]1C` [Compound 61, 2-amino-1-((3R,4s,5S)-4-(2-fluoro-4-(3-fluoro-1H-pyrrolo[2,3-b]pyridin-4-yl)-6-methylphenyl)-4-hydroxy-3,5-dimethylpiperidin-1-yl)ethan-1-one], the IC50 at LATS2 and at LATS1 was 3.2 nM throughout.
Regarding `C[C@@H]1CN(CC(N)=O)C[C@H](C)[C@@]1(O)c1c(F)cc(-c2ccnc3[nH]cc(F)c23)cc1F` [Compound 88, 2-((3R,4s,5S)-4-(2,6-difluoro-4-(3-fluoro-1H-pyrrolo[2,3-b]pyridin-4-yl)phenyl)-4-hydroxy-3,5-dimethylpiperidin-1-yl)acetamide], the IC50 at LATS2 worked out at 2.9 nM; at LATS1, 2.5 nM.
On the same counts, the results for `C[C@@H]1CN(C2CCNCC2)C[C@H](C)[C@@]1(O)c1c(F)cc(-c2ccnc3[nH]cc(F)c23)cc1F` [Compound 90, (3R,4s,5S)-4-(2,6-difluoro-4-(3-fluoro-1H-pyrrolo[2,3-b]pyridin-4-yl)phenyl)-3,5-dimethyl-[1,4′-bipiperidin]-4-ol] are 4.6 nM and 4.9 nM.
On the same counts, the results for `OC1(c2ccc(-c3ccnc4[nH]cc(F)c34)cc2)CCNCC1` [Compound 110, 4-(4-(3-fluoro-1H-pyrrolo[2,3-b]pyridin-4-yl)phenyl)piperidin-4-ol] are 2.9 nM and 5.7 nM.
Regarding `OC1(c2ccc(-c3ccnc4[nH]ccc34)cc2)CCNCC1` [Compound 111, 4-(4-(1H-pyrrolo[2,3-b]pyridin-4-yl)phenyl)piperidin-4-ol], the concentration for half-maximal inhibition (IC50) at LATS2 and on LATS1 was 22 nM each time.
